Assay results: US20150072416A1, “METABOLITE FOR IMPROVING PRODUCTION, MAINTENANCE AND PROLIFERATION OF PLURIPOTENT STEM CELLS, COMPOSITION COMPRISING THE SAME, AND METHOD OF CULTURING PLURIPOTENT STEM CELL USING THE SAME” (KOREA RESEARCH INSTITUTE OF BIOSCIENCE AND BIOTENOLOGY, priority 2012, published 2015)

Columns and labels:
[1] = tested on: human fibroblasts transfected with reprogramming factor OSKM; assay: Measurement of reactive oxygen species during reprogramming; type: cell-based; conditions: 1 mM, day 19 of induction of reprogramming
Method: On day 19 of induction of reprogramming, the cells were dissociated into single cells by trypsin, and then stained with 5 μM of CM-H2DCFDA (2,7-dichlorodihydrofluresceindiacetat) at 37° C. for 30 minutes. Cells treated with 100 μM of hydrogen peroxide (H2O2) were used as a positive control group for the formation of reactive oxygen species, and the degree of fluorescence staining was measured by flow cytometry and quantified.

[2] = tested on: H9 human embryonic stem cells and human induced pluripotent stem cells; assay: Low-density cloning after single-cell dissociation (AP staining, apoptosis); type: cell-based; conditions: AP staining and apoptosis assays
Method: In order to examine the effect of nicotinamide on a reduction in the apoptosis of human pluripotent stem cells, dual apoptosis assay (Biotium, Hayward, Calif.) was performed. Embryonic stem cells or cells reprogrammed were stained with NucView™488 Caspase-3 Substrate (green)/Annextin V (red) at room temperature for 30 minutes, followed by washing with PBS. At least 4 sections of each sample were imaged with an Olympus fluorescence microscope (IX51, Olympus), and the number of cells stained with green (Caspase-3) was counted to quantify the degree of apoptosis.
In order to examine the effect of nicotinamide on the survival of human pluripotent stem cells at low density, human pluripotent stem cells were treated with TrypLE reagent (Invitrogen) for 3 minutes, and then dissociated into single cells by pipetting and seeded on a Matrigel-coated 96-well plate at a density of 500 cells per well. After 5 days of culture, human pluripotent stem cell colonies started to be formed, and the cells were fixed with 4% paraformaldehyde, and then AP staining was performed or the level of apoptosis was measured.

[3] = tested on: human fibroblasts and human fibroblasts transfected with reprogramming factors; assay: Cell growth and proliferation during reprogramming (viable cell count, BrdU, live-cell imaging); type: cell-based
Method: Human fibroblasts were seeded in a 6-well culture dish at a density of about 1×10^5 cells per well. The seeded cells were cultured for 26 days under the indicated culture conditions. To count the cell number, the cells were washed with PBS and treated with trypsin. The cell suspension was mixed with 0.4% (wt/vol) trypan blue solution, and the number of viable cells was counted on day 19 and day 26 using a hemocytometer (FIG. 10). Each experiment was performed in triplicate. Specifically, for BrdU incorporation, cells were incubated in the presence of 30 μM BrdU at 37° C. for 1 hour. After washing with PBS, the cells were fixed with 4% paraformaldehyde for 15 minutes and reacted in 1N HCl at room temperature for 15 minutes. The sample was washed and reacted with 0.1 M sodium tetraborate for 15 minutes. After washing, the cells were reacted with anti-BrdU antibody in 3% BSA-containing PBS for 1 hour, and then reacted with FITC-conjugated secondary antibody for 30 minutes. […] On day 12 of induction of reprogramming, virus expressing the cell-cycle regulators Geminin-GFP (green) and Cdt1-RFP (red) was introduced into the cells for 2 hours while slowly shaking the cells, and then an accelerator was added to the cells, followed by culture for 1 hour. The medium was replaced with fresh medium, and the cells were further cultured overnight and imaged with a fluorescence microscope. The images were obtained for at least 4 sections per sample, and the number of resting-stage cells (red) and dividing cells (green) was counted. The ratio of dividing cells was quantified by the green/red ratio.

[4] = tested on: human fibroblasts transfected with reprogramming factor OSKM; assay: Senescence-associated beta-galactosidase staining and senescence-associated DNA damage staining during reprogramming; type: cell-based; conditions: for decrease in number of senescent cells: 10 mM
Method: On day 26 of induction of reprogramming, the cells were fixed with a fixation solution at room temperature for 10 minutes, and then stained with a β-galactosidase solution at room temperature for 15 minutes. Next, the DNA was stained with DAPI (4′,6-diamidino-2-phenylindole) for 5 minutes, and then the cells were imaged by phase-contrast and fluorescence microscopy. The number of cells having senescence (green) damaged DNA (blue combined points) was counted and quantified relative to the number of normal cells.

[5] = tested on: human pluripotent stem cells; assay: Long-term subculture in UM with nicotinamide (TRA-1-60 staining, karyotyping); type: cell-based
p53, p21 and p16 = assay: Expression of senescence-associated signaling factors (immunostaining, Western blot, real-time PCR); type: cell-based, human
Method: Total RNA was isolated from produced cells using an RNeasy Mini kit (Qiagen, Valencia, Calif.) and reverse-transcribed using a SuperScript First-strand synthesis system kit (Invitrogen) according to the manufacturer's instruction. Then, semi-quantitative RT-PCR was performed using a platinum Tag SuperMix kit (Invitrogen) under the following conditions: 94° C. for 3 minutes, and then 25-30 cycles, each consisting of 94° C. for 30 sec, 60° C. for 30 sec and 72° C. for 30 sec, followed by extension at 72° C. for 10 minutes.
For immunostaining, cells were seeded on Matrigel-coated 4-well Lab-Tek chamber slides (Nunc, Naperville, Ill.) and cultured for 5 days under the indicated conditions. […]
Cells were lysed with RIPA buffer (containing 50 mM Tris, pH 8.0, 150 mM NaCl, 1% NP-40, 0.1% SDS, 0.5% deoxycholic acid, 1 mM PMSF) and mixed with a protease inhibitor (Roche Applied Science, Indianapolis, Ind.) on ice for 15 minutes, followed by centrifugation at 20,000×g at 4° C. for 10 minutes. The supernatant was re-centrifuged for 10 minutes, and the protein concentration was measured using a BCA protein assay kit (Pierce, Rockford, Ill.). […] The density of the bands was analyzed using Image Gauge software (Fuji Photo Film GMBH, D) and normalized to the bands of the loading control (β-actin). […]

NC(=O)c1cccnc1 [nicotinamide]
formation of reactive oxygen species [1]: inhibited | survival and self-renewal abilities at low density after single-cell dissociation [2]: significantly increased | ratio of proliferating cells (live cell imaging) ([3]; 1 mM, day 12 of induction of reprogramming): increased | number of healthy viable cells ([3]; 0.1, 1 and 10 mM, days 19 and 26, concentration-dependent): increased | number of actually dividing cells incorporated with BrdU ([3]; 0.1-1 mM, day 19 of induction of reprogramming): significantly increased | optimal nicotinamide concentration for promoting cell growth ([3]; culture process for inducing reprogramming): 1 mM | decrease in cellular senescence-associated DNA damage ([4]; 1 mM, compared to control group): 83.0±0.5% | decrease in ratio of cells stained with senescence-associated beta-galactosidase ([4]; 1 mM, day 19, compared to untreated group): 88.1±1.4% | decrease in ratio of cells stained with senescence-associated beta-galactosidase ([4]; 1 mM, day 26, compared to untreated group): 76.9±2.5% | decrease in number of senescent cells ([4]; day 19, compared to control group): 76.1±1.4% | decrease in number of senescent cells ([4]; day 21, compared to control group): 30.8±9.0% | passages subcultured in an undifferentiated state ([5]; UM with 0.1 mM nicotinamide, TRA-1-60 staining): ≥ 10 passages | karyotype after long-term subculture ([5]; nicotinamide-containing medium): normal karyotypes | mRNA and protein expression levels of p53, p21 and p16 (p53, p21 and p16; 1 mM, reprogramming process): significantly decreased | inhibition of expression of senescence factors p53, p27, p21 and p16 (p53, p21 and p16; high concentration (20 mM)): did not appear
